What was measured:
[1] = tested on: MCT-induced PAH; test: Monocrotoline (MCT)-induced model of pulmonary arterial hypertension (PAH) in rats; assay type: in vivo, rat; details: for lumen: total vessel diameter ratio versus animals treated with MCT-alone: day 28, oral BID, NTP42 and TP20 0.25 mg/kg/dose, Sildenafil 50 mg/kg/dose
Protocol: FIGS. 19-23 show the efficacy of NTP42 in the monocrotoline (MCT)-induced model of pulmonary arterial hypertension (PAH) in rats. In brief, male Wistar/Kyoto rats were given a single dose of MCT (60 mg/kg, subcutaneously) and then treated with twice daily doses (oral dosing) for 28 days with either the drug vehicle, the test article NTP42 (0.25 mg/kg/dose, BID) or with the reference compounds Sildenafil (50 mg/kg/dose, BID) or TP20 (0.25 mg/kg/dose, BID). As a control, a group of rats were left untreated, i.e., no MCT or therapeutic drugs. At Day 28, post-MCT induction, rats were anaesthetised for cardiac surgery & hemodynamic parameters recorded. Thereafter, the trachea, heart & lungs were removed en masse, the wet weights of the heart & lungs recorded and then the lungs were harvested, fixed and processed for histopathology.
Aperio's ImageScope was used to analyze the digitally scanned H&E stained lung sections, where 10 random squares (approx. size or each square=1×10^6 μm^2) per lower, middle and upper section of lung tissue were selected for analysis. Within each square, all blood arterioles (complete arterioles within each square and those touching the right & bottom were assessed but not the left or top of the squares) were measured in ImageScope for luminal and total vessel diameter where the ratio of lumen to total vessel diameter was determined for each arteriole.
FIGS. 24-27 show the effect of the test articles on the mean (±S.E.M.) lumen: total vessel diameter ratio for all arterioles (Total) and the arterioles categorized by size: small, <50 μm total diameter; medium, 50-100 μm and large, >100 μm.
FIG. 27 presents data representing the mean (±SEM) lumen: total vessel diameter ratio for large arterioles (>100 μm).

[2] = biological target: T1, TP (Homo sapiens, UniProt P21731); test: U44069-mediated [Ca2+]i mobilization (CEREP); assay type: cell-based; details: CEREP assay, agonist U44069; read-out: IC50 Value for Inhibition of U44069-Mediated [Ca2+]i Mobilization
T1 construct: CEREP
T1 sequence (P21731 1-343): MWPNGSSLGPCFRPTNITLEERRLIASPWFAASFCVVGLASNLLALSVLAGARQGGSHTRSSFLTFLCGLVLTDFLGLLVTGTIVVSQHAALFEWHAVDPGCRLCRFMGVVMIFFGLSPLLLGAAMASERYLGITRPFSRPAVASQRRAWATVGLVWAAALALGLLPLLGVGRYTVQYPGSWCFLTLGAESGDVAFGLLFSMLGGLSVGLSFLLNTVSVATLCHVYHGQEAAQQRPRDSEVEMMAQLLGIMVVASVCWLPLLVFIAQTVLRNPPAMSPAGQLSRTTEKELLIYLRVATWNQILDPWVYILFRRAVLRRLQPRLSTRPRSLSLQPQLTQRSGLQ
Excerpt: FIG. 18 presents the effect of NTP42 and NTP48 on TP- or U44069-mediated signaling (CEREP use the related U44069 rather than U46619), including IC50 values for inhibition (see also Table 4). Those effects indicate that NTP42 & NTP48 are potent antagonists of U46609 or TP. The differences in IC50 values may be attributed to the differences in the particular conditions of the assay, including differences in cell type, agonist, calcium indicator, etc.
Table 4 is an example of the IC50 values of NTP42 and NTP48 to antagonize TP-mediated [Ca^2+]i mobilization following stimulation of cells with the alternative TP agonist […].

Row | SMILES | efficacy in the MCT-induced PAH model (hemodynamic and histological features) ([1]; MCT 60 mg/kg s.c., oral 0.25 mg/kg/dose BID for 28 days) | lumen: total vessel diameter ratio versus animals treated with MCT-alone [1] | IC50 [2]
1 | CC(C)(C)NC(=O)NS(=O)(=O)c1cc(C#N)ccc1Oc1cccc(-c2ccc(OC(F)F)cc2)c1 [NTP42] | efficacious | significantly increased | 3.28 ± 0.34 nM
2 | CN(C)C(=O)c1ccc(-c2cccc(Oc3ccc(C#N)cc3S(=O)(=O)NC(=O)NC(C)(C)C)c2)cc1 [NTP48, 4-[3-[2-(tert-Butylcarbamoylsulfamoyl)-4-cyano-phenoxy]phenyl]-N,N-dimethyl-benzamide] |  |  | 7.71 ± 0.96 nM
3 | COc1ccc(-c2cccc(Oc3ccc([N+](=O)[O-])cc3S(=O)(=O)NC(=O)NC(C)(C)C)c2)cc1 [TP20, reference compound] |  | significantly increased | 
